Results taken from patent US20090093423A2, “NOVEL 2-SUBSTITUTED METHYL PENAM DERIVATIVES” (Orchid Chemicals and Pharmaceuticals Limited, priority 2006, published 2009).
Each block holds one compound with its values, some of them ahead of it.

Assays:
[1] = test system: A. baumani MRO 14512; assay: MIC, Agar Dilution Method, resistant clinical isolate; type: cell-based
Procedure: (§1) The novel compounds were tested for the in vitro antibacterial activities by the Agar Dilution Method as specified in documents published by NCCLS, now CLSI, USA. (National Committee for Clinical Laboratory Standards (NCCLS). 2003. Approved standard M7-A6. NCCLS, Villanova, Pa.).
(§2) Tazo was also dissolved in same buffer to get a solution of, e.g., 1 mg/mL. Novel penam derivatives described herein were dissolved in water to get a solution of, e.g., 1 mg/mL.
(§3) The novel compounds and Tazo were also tested individually. The bacterial inoculum was prepared by picking 3 to 5 well-isolated bacterial colonies with the same morphological appearance from an 18-24 h old culture and adjusting the turbidity of the saline suspension to 0.5 McFarland Turbidity Standard equivalent to a bacterial population of 1.5×10^8 colony forming units (CFU) per mL of suspension. The suspension was diluted 1:10 in saline (i.e. 0.5 mL suspension+4.5 mL saline) to get a bacterial population of 1.5×10^7 CFU/mL as inoculum. […] The inoculated petridishes were incubated at 35° C. in an ambient atmosphere for 16-20 h.

[2] = test system: A. baumani MRO 14514; assay: as above; type: cell-based
Procedure: as §1, §2, §3

[3] = test system: A. baumani MRO 14515; assay: as above; type: cell-based
Procedure: as §1, §2, §3

[4] = test system: E. coli MRO 10135; assay: as above; type: cell-based
Procedure: as §1, §2, §3

[5] = test system: strains resistant to Fluoroquinolones; details: Kriengkauykiat et al. 2005; cited from earlier work
[6] = test system: K. pneumoniae ATCC 700603; assay: MIC, Agar Dilution Method; type: cell-based; details: K. pneumoniae 700603, SHV-18
Procedure: as §1, §2, §3

[7] = test system: K. pneumoniae MRO 11008; assay: MIC, Agar Dilution Method; type: cell-based; details: ESBL producing K. pneumoniae strain; inhibitor 1 μg/mL
Procedure: as §1, §2, §3

[8] = test system: E. coli BAA-196 (TEM-10); assay: MIC, Agar Dilution Method, ESBL producing ATCC isolate; type: cell-based; details: inhibitor 4 μg/mL
Procedure: as §1, §2, §3

[9] = test system: E. coli BAA-197 (TEM-12); assay: as above; type: cell-based; details: inhibitor 4 μg/mL
Procedure: as §1, §2, §3

[10] = test system: E. coli BAA-198 (TEM-26); assay: as above; type: cell-based
Procedure: as §1, §2, §3

[11] = test system: E. coli BAA-199 (SHV-3); assay: as above; type: cell-based
Procedure: as §1, §2, §3

[12] = test system: E. coli BAA-200 (SHV-4); assay: as above; type: cell-based; details: for potentiation of Piperacillin compared to Tazo: SHV-4 ESBL producing strain
Procedure: as §1, §2, §3

[13] = test system: E. coli BAA-201 (TEM-3); assay: as above; type: cell-based
Procedure: as §1, §2, §3

[14] = test system: E. coli BAA-202 (SHV-1); assay: as above; type: cell-based
Procedure: as §1, §2, §3

[15] = test system: K. pneumoniae 51503 (TEM-10 & -12); assay: as above; type: cell-based; details: inhibitor 4 μg/mL
Procedure: as §1, §2, §3

[16] = test system: P. mirabilis BAA-663 (TEM-89); assay: as above; type: cell-based
Procedure: as §1, §2, §3

[17] = molecular target: Penicillinase enzyme; assay: β-Lactamase assay (Centa substrate); type: biochemical; details: FIG. 1
Procedure: Representative novel compounds were subjected to β-lactamase assay to determine and compare their IC50 with that of Tazo as described elsewhere (Bebrone et. al, 2001, Antimicrob. Agents. Chemother. 45(6): 1868-1871; Jamieson et. al, 2003, Antimicrob. Agents. Chemother. 47(5): 1652-1657). Briefly enzyme inhibition assays with Tazo acid as the standard inhibitor for % inhibitions & IC50 value with optimized concentrations of Penicillinase enzyme & Centa β-lactamase substrate were performed.

[18] = Minimum bactericidal studies, broth macrodilution; type: cell-based
Procedure: Minimum bactericidal studies were performed by broth macrodilution technique as described by NCCLS.

[19] = Intravenous pharmacokinetics in mice; type: in vivo, Swiss mice
Excerpt: Blood samples were collected at different time points. These samples were processed and analyzed by HPLC.

[20] = Possibility of conversion of Example 1 to Tazo, LC-MS/MS of plasma; type: in vivo; details: Swiss mice, 8 mg/kg along with Piperacillin (32 mg/kg)
Procedure: Blood samples were collected at different time points. These samples were processed and analyzed by LC-MS/MS, which has the capability of simultaneously detecting even the lower concentration of Tazo (20 ng/mL) and the compound obtained from Example 1 (10 ng/mL).

[21] = test system: strains producing the TEM type ESBLs (TEM-10, TEM-12 and TEM-10 and -12); assay: MIC, Agar Dilution Method, TEM panel; type: cell-based; details: TEM-10, TEM-12 and TEM-10 and -12 strains; inhibitor 1 μg/mL and 2 μg/mL
Procedure: as §1, §2, §3

[22] = test system: strains resistant to Ceftazidime, Ciprofloxacin, and Piperacillin/Tazo combination; assay: MIC, Agar Dilution Method, resistant panel; type: cell-based
Procedure: as §1, §2, §3

[23] = test system: E. coli MRO 10006; assay: In vivo efficacy, infected mice; details: Swiss albino mice infected with E. coli MRO 10006; Piperacillin:inhibitor 4:1; 7-day survival
Procedure: (§4) The efficacy studies were performed as described earlier (Kuck et al, 1989, Antimicrob. Agents. Chemother. 33(11): 1964-1969). Briefly, Swiss albino mice, 20+2 g, from in-house breeding facility were challenged by the intraperitoneal injection of bacterial suspensions in 0.5 mL of hog gastric mucin (10 to 100 50% lethal doses). […] All the untreated control animals died within 48 h of infection. In each experiment, in-house Tazo was used as an inhibitor control in four doses. Median (50%) effective dose (ED50) were determined by applying the Reed and Muench's method of the 7-day survival ratios.

[24] = test system: E. coli MRO 10007; assay: In vivo efficacy, infected mice; details: Swiss albino mice infected with E. coli MRO 10007; Piperacillin:inhibitor 4:1; 7-day survival
Procedure: as §4

[25] = test system: ESBL producing E. coli strains; assay: In vivo efficacy, infected mice
Procedure: as §4

[26] = test system: K. pneumoniae MRO 11008; assay: In vivo efficacy, infected mice
Procedure: as §4

SMILES: CC(C)(O/N=C(\C(=O)N[C@@H]1C(=O)N2C(C(=O)[O-])=C(C[n+]3ccccc3)CS[C@H]12)c1csc(N)n1)C(=O)O [Ceftazidime]
MIC (antibiotic alone) [1]: >64 µg/mL
MIC (antibiotic alone) [2]: >64 µg/mL
MIC (antibiotic alone) [3]: >64 µg/mL
MIC (antibiotic alone) [4]: >64 µg/mL
cross-resistance of strains resistant to Fluoroquinolones [5]: 76%

SMILES: C[n+]1ccn(C[C@@]2(C)[C@H](C(=O)[O-])N3C(=O)C[C@H]3S2(=O)=O)n1 [Example 1, 1-{[(2S,3S,5R)-2-Carboxy-3-methyl-4,4,7-trioxo-4-thia-1-azabicyclo[3.2.0]hept-3-yl]methyl}-3-methyl-1H-1,2,3-triazol-3-ium]
MIC of Piperacillin with different concentrations of Tazo or compound of Example 1 ([6]; inhibitor 2 μg/mL): 16 µg/mL
MIC of Piperacillin with different concentrations of Tazo or compound of Example 1 ([6]; inhibitor 4 μg/mL): 16 µg/mL
in vitro potentiation of Piperacillin [7]: 16 fold
MIC of Piperacillin with different concentrations of Tazo or compound of Example 1 [8]: 4 µg/mL
MIC of Piperacillin with different concentrations of Tazo or compound of Example 1 [9]: 4 µg/mL
MIC of Piperacillin with different concentrations of Tazo or compound of Example 1 ([10]; inhibitor 1 μg/mL): 4 µg/mL
MIC of Piperacillin with different concentrations of Tazo or compound of Example 1 ([10]; inhibitor 2 μg/mL): 4 µg/mL
MIC of Piperacillin with different concentrations of Tazo or compound of Example 1 ([10]; inhibitor 4 μg/mL): 2 µg/mL
potentiation of Piperacillin compared to Tazo ([11]; SHV-3 ESBL producing strain, inhibitor 1 μg/mL): > 16 fold
potentiation of Piperacillin compared to Tazo ([11]; SHV-3 ESBL producing strain, inhibitor 2 μg/mL): > 32 fold
potentiation of Piperacillin compared to Tazo (in words) ([11]; SHV-3 producing strain as printed (second mention), inhibitor 4 μg/mL): comparable with Tazo
potentiation of Piperacillin compared to Tazo ([11]; SHV-3 producing strain, inhibitor 4 μg/mL): > 64 fold
MIC of Piperacillin with different concentrations of Tazo or compound of Example 1 ([12]; E. coli BAA-200, SHV-4, inhibitor 4 μg/mL): 2 µg/mL
potentiation of Piperacillin compared to Tazo ([12]; inhibitor 1 μg/mL): > 16 fold
potentiation of Piperacillin compared to Tazo ([12]; inhibitor 2 μg/mL): > 32 fold
MIC of Piperacillin with different concentrations of Tazo or compound of Example 1 ([13]; inhibitor 1 μg/mL): 4 µg/mL
MIC of Piperacillin with different concentrations of Tazo or compound of Example 1 ([13]; inhibitor 2 μg/mL): 2 µg/mL
MIC of Piperacillin with different concentrations of Tazo or compound of Example 1 ([13]; inhibitor 4 μg/mL): 2 µg/mL
MIC of Piperacillin with different concentrations of Tazo or compound of Example 1 ([14]; inhibitor 1 μg/mL): >128 µg/mL
MIC of Piperacillin with different concentrations of Tazo or compound of Example 1 ([14]; inhibitor 2 μg/mL): >128 µg/mL
MIC of Piperacillin with different concentrations of Tazo or compound of Example 1 ([14]; inhibitor 4 μg/mL): >128 µg/mL
MIC of Piperacillin with different concentrations of Tazo or compound of Example 1 [15]: 8 µg/mL
MIC of Piperacillin with different concentrations of Tazo or compound of Example 1 ([16]; inhibitor 1 μg/mL): 16 µg/mL
MIC of Piperacillin with different concentrations of Tazo or compound of Example 1 ([16]; inhibitor 2 μg/mL): 8 µg/mL
MIC of Piperacillin with different concentrations of Tazo or compound of Example 1 ([16]; inhibitor 4 μg/mL): 8 µg/mL
MIC of Piperacillin in combination with 4 μg/mL inhibitor ([1]; Pip + 4 μg/mL inhibitor): 4 µg/mL
MIC of Piperacillin in combination with 4 μg/mL inhibitor ([2]; Pip + 4 μg/mL inhibitor): 32 µg/mL
MIC of Piperacillin in combination with 4 μg/mL inhibitor ([3]; Pip + 4 μg/mL inhibitor): 32 µg/mL
MIC of Piperacillin in combination with 4 μg/mL inhibitor ([4]; Pip + 4 μg/mL inhibitor): 16 µg/mL
IC50 compared with Tazo [17]: three-fold lower
Minimum bactericidal concentration study, Piperacillin in combination with inhibitor [18]: bacteriostatic
C0 ([19]; Swiss, mouse, in vivo, iv, 8 mg/kg): 15200 ng/mL
AUC(0-t) ([19]; Swiss, mouse, in vivo, iv, 8 mg/kg, read-out: AUC0-4 h): 5370 ng·h/mL
AUC ([19]; Swiss, mouse, in vivo, iv, 8 mg/kg, read-out: AUC0-∝): 5830 ng·h/mL
half-life ([19]; Swiss, mouse, in vivo, iv, 8 mg/kg, read-out: Elimination half-life (converted)): 16.3 min
systemic exposure ([19]; mice, intravenous, compared with Tazo): higher than that of Tazo
conversion to Tazo after intravenous administration (LC-MS/MS of plasma) [20]: did not get converted to Tazo
potentiation of Piperacillin compared to Tazo [21]: 2-16 fold
potentiated the antibacterial activity of Piperacillin compared to that of Tazo ([22]; inhibitor 4 μg/mL, strains resistant to Ceftazidime and Ciprofloxacin): 2-16 fold
susceptibility of resistant strains to Piperacillin in combination ([22]; strains resistant to Ceftazidime, Ciprofloxacin, and Piperacillin/Tazo combination): susceptible
ED50 of Piperacillin in combination with inhibitor [23]: 22.62 mg/kg b.w.
ED50 of Piperacillin in combination with inhibitor [24]: 24.88 mg/kg b.w.
ED50 of Piperacillin in combination, compared to that in combination with Tazo [25]: two-fold lower
ED50 of Piperacillin in combination with inhibitor ([26]; Swiss albino mice infected with K. pneumoniae MRO 11008, Piperacillin:inhibitor 4:1, 7-day survival): 34.89 mg/kg b.w.
increase of efficacy of Piperacillin ([26]; mice, ESBL producing K. pneumoniae strain resistant in vitro to Piperacillin with 1 μg/mL Tazo): three-fold

IC50 compared with Tazo [17]: three-fold lower
SMILES: CC[n+]1ccn(C[C@@]2(C)[C@H](C(=O)[O-])N3C(=O)C[C@H]3S2(=O)=O)n1 [Example 2, 1-{[(2S,3S,5R)-2-Carboxy-3-methyl-4,4,7-trioxo-4-thia-1-azabicyclo[3.2.0]hept-3-yl]methyl}-3-ethyl-1H-1,2,3-triazol-3-ium]
